Data taken from US20230085307A1, “PYRIDAZINONE COMPOUND AND HERBICIDE” (NISSAN CHEMICAL CORPORATION, priority 2019, published 2023).

Experiments:
barnyard grass [1] = assay: Test Example 3: herbicidal effect by foliage application, Wagner pot (Table 18, symbol H); type: in vivo, barnyard grass (Echinochloa crus-galli); settings: 320 g/ha
Method in brief: (§1)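 Plants were sown in alluvial soil held under 0.1–0.5 cm standing water and grown 14 days in a greenhouse at 25–30 °C. An emulsifiable formulation, water-diluted to the set dose, was then sprayed onto the foliage, and effects were scored three weeks later using previously defined criteria.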

Chinese sprangletop = assay: Test Example 3: herbicidal effect by foliage application, Wagner pot (Table 18, symbol D); type: in vivo, chinese sprangletop (Leptochloa chinensis); settings: 320 g/ha
Method in brief: as §1

rice flat sedge = assay: Test Example 3: herbicidal effect by foliage application, Wagner pot (Table 18, symbol E); type: in vivo, rice flat sedge (Cyperus iria); settings: 320 g/ha
Method in brief: as §1

southern crabgrass [2] = assay: Test Example 4: herbicidal effect by soil treatment (Table 19, symbol F); type: in vivo, southern crabgrass (Digitaria ciliaris)
Method in brief: (§2)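 Three weeks of greenhouse growth at 25° C. to 30° C. followed a uniform surface spray of water-diluted emulsion at a predetermined herbicide amount. Seeds had been sown beforehand under about 1.5 cm of sterilized diluvial soil. Grading followed criteria set out in an earlier test.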

green foxtail [3] = assay: Test Example 4: herbicidal effect by soil treatment (Table 19, symbol G); type: in vivo, green foxtail (Setaria viridis)
Method in brief: as §2

barnyard grass [4] = assay: Test Example 4: herbicidal effect by soil treatment (Table 19, symbol H); type: in vivo, barnyard grass (Echinochloa crus-galli)
Method in brief: as §2

wild oat [5] = assay: Test Example 4: herbicidal effect by soil treatment (Table 19, symbol I); type: in vivo, wild oat (Avena fatua)
Method in brief: as §2

blackgrass [6] = assay: Test Example 4: herbicidal effect by soil treatment (Table 19, symbol J); type: in vivo, blackgrass (Alopecurus myosuroides)
Method in brief: as §2

Italian ryegrass [7] = assay: Test Example 4: herbicidal effect by soil treatment (Table 19, symbol K); type: in vivo, Italian ryegrass (Lolium multiflorum)
Method in brief: as §2

windgrass [8] = assay: Test Example 4: herbicidal effect by soil treatment (Table 19, symbol L); type: in vivo, windgrass (Apera spica-venti)
Method in brief: as §2

velvetleaf [9] = assay: Test Example 4: herbicidal effect by soil treatment (Table 19, symbol M); type: in vivo, velvetleaf (Abutilon theophrasti)
Method in brief: as §2

lambsquarters [10] = assay: Test Example 4: herbicidal effect by soil treatment (Table 19, symbol O); type: in vivo, lambsquarters (Chenopodium album)
Method in brief: as §2

chickweed [11] = assay: Test Example 4: herbicidal effect by soil treatment (Table 19, symbol P); type: in vivo, common chickweed (Stellaria media)
Method in brief: as §2

false cleavers = assay: Test Example 4: herbicidal effect by soil treatment (Table 19, symbol Q); type: in vivo, false cleavers (Galium spurium)
Method in brief: as §2

persian speedwell [12] = assay: Test Example 4: herbicidal effect by soil treatment (Table 19, symbol R); type: in vivo, Persian speedwell (Veronica persica)
Method in brief: as §2

southern crabgrass [13] = assay: Test Example 5: herbicidal effect by foliage application, plastic box (Table 20, symbol F); type: in vivo, southern crabgrass (Digitaria ciliaris)
Method in brief: (§3)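 Plants sown in sterilized diluvial soil and grown 14 days in a greenhouse at 25° C to 30° C, then sprayed on the foliage with the compound's emulsion diluted in water to a predetermined herbicide amount. Injury to weeds and crops scored three weeks after application on a visual rating scale.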

green foxtail [14] = assay: Test Example 5: herbicidal effect by foliage application, plastic box (Table 20, symbol G); type: in vivo, green foxtail (Setaria viridis)
Method in brief: as §3

barnyard grass [15] = assay: Test Example 5: herbicidal effect by foliage application, plastic box (Table 20, symbol H); type: in vivo, barnyard grass (Echinochloa crus-galli)
Method in brief: as §3

wild oat [16] = assay: Test Example 5: herbicidal effect by foliage application, plastic box (Table 20, symbol I); type: in vivo, wild oat (Avena fatua)
Method in brief: as §3

blackgrass [17] = assay: Test Example 5: herbicidal effect by foliage application, plastic box (Table 20, symbol J); type: in vivo, blackgrass (Alopecurus myosuroides)
Method in brief: as §3

Italian ryegrass [18] = assay: Test Example 5: herbicidal effect by foliage application, plastic box (Table 20, symbol K); type: in vivo, Italian ryegrass (Lolium multiflorum)
Method in brief: as §3

windgrass [19] = assay: Test Example 5: herbicidal effect by foliage application, plastic box (Table 20, symbol L); type: in vivo, windgrass (Apera spica-venti); settings: foliage application, AAH 320 g/ha, three weeks after application
Method in brief: as §3

velvetleaf [20] = assay: Test Example 5: herbicidal effect by foliage application, plastic box (Table 20, symbol M); type: in vivo, velvetleaf (Abutilon theophrasti)
Method in brief: as §3

redroot pigweed [21] = assay: Test Example 5: herbicidal effect by foliage application, plastic box (Table 20, symbol N); type: in vivo, redroot pigweed (Amaranthus retroflexus)
Method in brief: as §3

lambsquarters [22] = assay: Test Example 5: herbicidal effect by foliage application, plastic box (Table 20, symbol O); type: in vivo, lambsquarters (Chenopodium album)
Method in brief: as §3

chickweed [23] = assay: Test Example 5: herbicidal effect by foliage application, plastic box (Table 20, symbol P); type: in vivo, common chickweed (Stellaria media)
Method in brief: as §3

persian speedwell [24] = assay: Test Example 5: herbicidal effect by foliage application, plastic box (Table 20, symbol R); type: in vivo, Persian speedwell (Veronica persica)
Method in brief: as §3

redroot pigweed [25] = assay: Test Example 4: herbicidal effect by soil treatment (Table 19, symbol N); type: in vivo, redroot pigweed (Amaranthus retroflexus); settings: amount of applied herbicide 320 g/ha
Method in brief: as §2

[26] = foliage application, AAH 320 g/ha, three weeks after application
[27] = amount of applied herbicide 320 g/ha
[28] = 320 g/ha, foliage application after 14-day growth, evaluated three weeks after application

CCCC(=O)Oc1c(OC)nn(C)c(=O)c1-c1c(-c2ccc(F)c(F)c2)sc2ccccc12 [1-173]
herbicidal effect on H (barnyard grass), rating 0-5 (barnyard grass [1]): 1 (Herbicidal rate of 5% or more and less than 20%) | herbicidal effect on D (Chinese sprangletop), rating 0-5 (Chinese sprangletop): 0 (Herbicidal rate of 5% or less (almost no effect)) | herbicidal effect on E (rice flat sedge), rating 0-5 (rice flat sedge): 5 (Herbicidal rate of 90% or more (almost completely withered)) | F: southern crabgrass, herbicidal effect rating (southern crabgrass [2]; AAH 320 g/ha): 0 (Herbicidal rate of 5% or less (almost no effect)) | G: green foxtail, herbicidal effect rating (green foxtail [3]; AAH 320 g/ha): 5 (Herbicidal rate of 90% or more (almost completely withered)) | H: barnyard grass, herbicidal effect rating (barnyard grass [4]; AAH 320 g/ha): 0 (Herbicidal rate of 5% or less (almost no effect)) | I: wild oat, herbicidal effect rating (wild oat [5]; AAH 320 g/ha): 0 (Herbicidal rate of 5% or less (almost no effect)) | J: blackgrass, herbicidal effect rating (blackgrass [6]; AAH 320 g/ha): 0 (Herbicidal rate of 5% or less (almost no effect)) | K: Italian ryegrass, herbicidal effect rating (Italian ryegrass [7]; AAH 320 g/ha): 2 (Herbicidal rate of 20% or more and less than 40%) | L: windgrass, herbicidal effect rating (windgrass [8]; AAH 320 g/ha): 0 (Herbicidal rate of 5% or less (almost no effect)) | M: velvetleaf, herbicidal effect rating (velvetleaf [9]; AAH 320 g/ha): 4 (Herbicidal rate of 70% or more and less than 90%) | O: lambsquarters, herbicidal effect rating (lambsquarters [10]; AAH 320 g/ha): 5 (Herbicidal rate of 90% or more (almost completely withered)) | P: chickweed, herbicidal effect rating (chickweed [11]; AAH 320 g/ha): 5 (Herbicidal rate of 90% or more (almost completely withered)) | Q: false cleavers, herbicidal effect rating (false cleavers; AAH 320 g/ha): 3 (Herbicidal rate of 40% or more and less than 70%) | R: persian speedwell, herbicidal effect rating (persian speedwell [12]; AAH 320 g/ha): 5 (Herbicidal rate of 90% or more (almost completely withered)) | F: southern crabgrass, herbicidal effect (southern crabgrass [13]; [26]): 0 (Herbicidal rate of 5% or less (almost no effect)) | G: green foxtail, herbicidal effect (green foxtail [14]; [26]): 3 (Herbicidal rate of 40% or more and less than 70%) | H: barnyard grass, herbicidal effect (barnyard grass [15]; [26]): 0 (Herbicidal rate of 5% or less (almost no effect)) | I: wild oat, herbicidal effect (wild oat [16]; [26]): 1 (Herbicidal rate of 5% or more and less than 20%) | J: blackgrass, herbicidal effect (blackgrass [17]; [26]): 1 (Herbicidal rate of 5% or more and less than 20%) | K: Italian ryegrass, herbicidal effect (Italian ryegrass [18]; [26]): 4 (Herbicidal rate of 70% or more and less than 90%) | L: windgrass, herbicidal effect (windgrass [19]): 0 (Herbicidal rate of 5% or less (almost no effect)) | M: velvetleaf, herbicidal effect (velvetleaf [20]; [26]): 5 (Herbicidal rate of 90% or more (almost completely withered)) | N: redroot pigweed, herbicidal effect (redroot pigweed [21]; [26]): 5 (Herbicidal rate of 90% or more (almost completely withered)) | O: lambsquarters, herbicidal effect (lambsquarters [22]; [26]): 5 (Herbicidal rate of 90% or more (almost completely withered)) | P: chickweed, herbicidal effect (chickweed [23]; [26]): 5 (Herbicidal rate of 90% or more (almost completely withered)) | R: persian speedwell, herbicidal effect (persian speedwell [24]; [26]): 5 (Herbicidal rate of 90% or more (almost completely withered))

COc1ccc(-c2sc3c(F)cccc3c2-c2c(O)c(C)nn(C)c2=O)cc1 [4-005]
herbicidal effect on barnyard grass (H) (barnyard grass [1]): 4 (Herbicidal rate of 70% or more and less than 90%) | herbicidal effect on Chinese sprangletop (D) (Chinese sprangletop): 3 (Herbicidal rate of 40% or more and less than 70%) | herbicidal effect on rice flat sedge (E) (rice flat sedge): 5 (Herbicidal rate of 90% or more (almost completely withered)) | Herbicidal effect by soil treatment, F: southern crabgrass (southern crabgrass [2]; [27]): 0 (Herbicidal rate of 5% or less (almost no effect)) | Herbicidal effect by soil treatment, G: green foxtail (green foxtail [3]; [27]): 5 (Herbicidal rate of 90% or more (almost completely withered)) | Herbicidal effect by soil treatment, H: barnyard grass (barnyard grass [4]; [27]): 4 (Herbicidal rate of 70% or more and less than 90%) | Herbicidal effect by soil treatment, I: wild oat (wild oat [5]; [27]): 0 (Herbicidal rate of 5% or less (almost no effect)) | Herbicidal effect by soil treatment, J: blackgrass (blackgrass [6]; [27]): 0 (Herbicidal rate of 5% or less (almost no effect)) | Herbicidal effect by soil treatment, K: Italian ryegrass (Italian ryegrass [7]; [27]): 0 (Herbicidal rate of 5% or less (almost no effect)) | Herbicidal effect by soil treatment, L: windgrass (windgrass [8]; [27]): 0 (Herbicidal rate of 5% or less (almost no effect)) | Herbicidal effect by soil treatment, M: velvetleaf (velvetleaf [9]; [27]): 0 (Herbicidal rate of 5% or less (almost no effect)) | Herbicidal effect by soil treatment, N: redroot pigweed (redroot pigweed [25]): 0 (Herbicidal rate of 5% or less (almost no effect)) | Herbicidal effect by soil treatment, O: lambsquarters (lambsquarters [10]; [27]): 4 (Herbicidal rate of 70% or more and less than 90%) | Herbicidal effect by soil treatment, P: chickweed (chickweed [11]; [27]): 4 (Herbicidal rate of 70% or more and less than 90%) | Herbicidal effect by soil treatment, Q: false cleavers (false cleavers; [27]): 0 (Herbicidal rate of 5% or less (almost no effect)) | Herbicidal effect by soil treatment, R: persian speedwell (persian speedwell [12]; [27]): 5 (Herbicidal rate of 90% or more (almost completely withered)) | herbicidal effect on F: southern crabgrass (evaluation grade 0-5) (southern crabgrass [13]; [28]): 0 (Herbicidal rate of 5% or less (almost no effect)) | herbicidal effect on G: green foxtail (evaluation grade 0-5) (green foxtail [14]; [28]): 5 (Herbicidal rate of 90% or more (almost completely withered)) | herbicidal effect on H: barnyard grass (evaluation grade 0-5) (barnyard grass [15]; [28]): 3 (Herbicidal rate of 40% or more and less than 70%) | herbicidal effect on I: wild oat (evaluation grade 0-5) (wild oat [16]; [28]): 0 (Herbicidal rate of 5% or less (almost no effect)) | herbicidal effect on J: blackgrass (evaluation grade 0-5) (blackgrass [17]; [28]): 0 (Herbicidal rate of 5% or less (almost no effect)) | herbicidal effect on K: Italian ryegrass (evaluation grade 0-5) (Italian ryegrass [18]; [28]): 4 (Herbicidal rate of 70% or more and less than 90%) | herbicidal effect on M: velvetleaf (evaluation grade 0-5) (velvetleaf [20]; [28]): 3 (Herbicidal rate of 40% or more and less than 70%) | herbicidal effect on N: redroot pigweed (evaluation grade 0-5) (redroot pigweed [21]; [28]): 3 (Herbicidal rate of 40% or more and less than 70%) | herbicidal effect on O: lambsquarters (evaluation grade 0-5) (lambsquarters [22]; [28]): 3 (Herbicidal rate of 40% or more and less than 70%) | herbicidal effect on P: chickweed (evaluation grade 0-5) (chickweed [23]; [28]): 5 (Herbicidal rate of 90% or more (almost completely withered)) | herbicidal effect on R: persian speedwell (evaluation grade 0-5) (persian speedwell [24]; [28]): 5 (Herbicidal rate of 90% or more (almost completely withered))
